Here are results for six molecules from patent US7074824B2, “Pharmaceutical compositions containing beta-lapachone, or derivatives or analogs thereof, and methods of using same” (Arqule, Inc., priority 2001, dated 2006).

This data set in a line: Solubility in water and in 40% (w/v) HPBCD solution by UV absorbance. Type of data set: physicochemical. Here is the method: To determine solubilities, test compounds were first dissolved in ethanol to prepare standard solutions with concentrations in the range 2.5–10 mg/ml, then were diluted with to 10 μg/ml with water. UV scans were obtained of the 10 μg/ml standard solutions, and the wavelength of maximum absorbance and the absorbance at the maximum absorbance wavelength were determined. For each test compound 50 μl aliquots of water and of 40% HPBCD were added to individual Eppendorf tubes containing approximately 1 mg of compound each. The tubes were heated in a 30° C. waterbath, vortexed, then centrifuged at 15,000 rpm for 5 min. This step was repeated, then the tubes were cooled to room temperature for 1 hour, then were centrifuged again. The supernatant from each tube was diluted with water into the appropriate absorbance range, and the UV absorbance was measured at the compound's absorbance maximum wavelength. The concentrations of these saturated solutions were then calculated by ratio to the 10 μg/ml ethanolic standard solutions.

Structures are written as SMILES. ≈ marks a conversion by molar mass, not a printed value.

On to `CC1(C)OC2=C(CC1O)C(=O)C(=O)c1ccccc12` (stereo not drawn) [Compound 3-Hydroxy-βL, 3-Hydroxy-βL], for which the “Solubility Enhancement” value was 10.6 −Fold, the “Solubility in HPBCD Solution” value came out at 14600 µg/mL (≈ 56.5 mM) and the “Solubility in Water” value was determined as 1381 µg/mL (≈ 5.35 mM).
As for `CC1(C)OC2=C(CC1Br)C(=O)C(=O)c1ccccc12` (stereo not drawn) [Compound 3-Bromo-βL, 3-Bromo-βL], the “Solubility Enhancement” value is 191 −Fold, the “Solubility in HPBCD Solution” value is 6900 µg/mL (≈ 21.5 mM) and the “Solubility in Water” value was determined as 36 µg/mL (≈ 0.112 mM).
Turning to `CC1(C)CC(=O)C2=C(O1)c1ccccc1C(=O)C2=O` [Compound 4-keto-βL, 4-keto-βL], the “Solubility Enhancement” value is on record as 8.7 −Fold, the “Solubility in HPBCD Solution” value was found to be 4400 µg/mL (≈ 17.2 mM) and the “Solubility in Water” value is 503 µg/mL (≈ 1.96 mM).
`CC1OC2=C(C(=O)C(=O)c3ccccc32)C1(C)C` (stereo not drawn) [Dunnione]: the “Solubility Enhancement” value is reported as 36 −Fold, the “Solubility in HPBCD Solution” value came to 17000 µg/mL (≈ 70.2 mM) and the “Solubility in Water” value is 476 µg/mL (≈ 1.96 mM).
The matching figures for `CC1(C)C=CC2=C(O1)c1ccccc1C(=O)C2=O` [3,4-dehydro-βL]: 240 −Fold, 5800 µg/mL (≈ 24.1 mM) and 24 µg/mL (≈ 0.0999 mM).
On to `CC(C)=CCC1CC2=C(OC1(C)C)c1ccccc1C(=O)C2=O` (stereo not drawn) [3-(3-methyl-2-butenyl)-βL], for which the “Solubility Enhancement” value is listed as 61 −Fold, the “Solubility in HPBCD Solution” value is 4100 µg/mL (≈ 13.2 mM) and the “Solubility in Water” value worked out at 67 µg/mL (≈ 0.216 mM).
